Results as given in US11548870B2, “Compounds useful as inhibitors of helios protein” (Bristol-Myers Squibb Company, priority 2019, dated 2023).
Read-outs that look alike come from different tables or passages of the source.

Experiments:
[1] = target: T1, Helios (Homo sapiens, UniProt Q96SW2+Q9UKS7); test: Helios Cellular Degradation Assay (flow cytometry, Helios-PE antibody staining, 72 h); assay type: cell-based; conditions: for Dmax: Jurkat, read-out: Helios Dmax
T1 construct: fluorescently labelled antibodies against Helios and Ikaros; endogenous in cells; host or cells: Jurkat cells
In short: (§1)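 Jurkat cells (80,000/well, RPMI+10% FBS) were exposed to compound for 72 h at 37 °C, then fixed, permeabilized and co-stained for 1 h with Ikaros-Alexa488 and Helios-PE antibodies. Intracellular protein levels were read by flow cytometry.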

[2] = target: T2, Ikaros (Homo sapiens, UniProt Q13422); test: Helios Cellular Degradation Assay, Ikaros readout (flow cytometry, Ikaros-Alexa488 antibody staining, 72 h); assay type: cell-based; conditions: for Dmax: Jurkat, read-out: Ikaros Dmax
T2 construct: fluorescently labelled antibodies against Helios and Ikaros; endogenous in cells; host or cells: Jurkat cells
In short: as §1

[3] = Jurkat cells, 72 h incubation, flow cytometry

T1 sequence (Q9UKS7 whole entry): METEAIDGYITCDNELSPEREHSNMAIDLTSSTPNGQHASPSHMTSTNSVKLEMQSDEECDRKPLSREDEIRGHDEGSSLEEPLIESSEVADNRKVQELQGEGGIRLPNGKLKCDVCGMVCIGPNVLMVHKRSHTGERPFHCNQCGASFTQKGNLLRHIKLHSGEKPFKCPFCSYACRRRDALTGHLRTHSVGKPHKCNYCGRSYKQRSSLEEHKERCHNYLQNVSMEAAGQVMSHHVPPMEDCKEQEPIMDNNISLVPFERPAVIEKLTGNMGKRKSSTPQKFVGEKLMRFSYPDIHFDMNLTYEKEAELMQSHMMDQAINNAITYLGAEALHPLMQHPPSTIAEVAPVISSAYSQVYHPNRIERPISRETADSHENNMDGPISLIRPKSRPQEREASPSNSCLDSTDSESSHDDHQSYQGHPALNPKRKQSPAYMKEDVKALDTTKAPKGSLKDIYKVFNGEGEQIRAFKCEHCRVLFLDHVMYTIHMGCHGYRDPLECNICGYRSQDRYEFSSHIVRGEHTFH
T1 sequence (Q96SW2 whole entry): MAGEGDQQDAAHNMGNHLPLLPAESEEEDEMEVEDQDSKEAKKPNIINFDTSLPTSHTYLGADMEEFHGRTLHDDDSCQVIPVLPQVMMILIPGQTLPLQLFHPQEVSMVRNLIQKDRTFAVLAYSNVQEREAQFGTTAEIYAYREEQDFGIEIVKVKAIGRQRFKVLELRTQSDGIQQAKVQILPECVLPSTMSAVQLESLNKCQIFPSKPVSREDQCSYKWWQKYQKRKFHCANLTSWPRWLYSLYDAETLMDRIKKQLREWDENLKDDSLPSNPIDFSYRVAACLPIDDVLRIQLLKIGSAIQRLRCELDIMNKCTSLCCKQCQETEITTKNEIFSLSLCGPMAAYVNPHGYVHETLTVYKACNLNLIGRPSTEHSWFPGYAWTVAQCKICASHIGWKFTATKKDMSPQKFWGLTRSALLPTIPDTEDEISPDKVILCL
T1 sequence (Q16531 whole entry partner): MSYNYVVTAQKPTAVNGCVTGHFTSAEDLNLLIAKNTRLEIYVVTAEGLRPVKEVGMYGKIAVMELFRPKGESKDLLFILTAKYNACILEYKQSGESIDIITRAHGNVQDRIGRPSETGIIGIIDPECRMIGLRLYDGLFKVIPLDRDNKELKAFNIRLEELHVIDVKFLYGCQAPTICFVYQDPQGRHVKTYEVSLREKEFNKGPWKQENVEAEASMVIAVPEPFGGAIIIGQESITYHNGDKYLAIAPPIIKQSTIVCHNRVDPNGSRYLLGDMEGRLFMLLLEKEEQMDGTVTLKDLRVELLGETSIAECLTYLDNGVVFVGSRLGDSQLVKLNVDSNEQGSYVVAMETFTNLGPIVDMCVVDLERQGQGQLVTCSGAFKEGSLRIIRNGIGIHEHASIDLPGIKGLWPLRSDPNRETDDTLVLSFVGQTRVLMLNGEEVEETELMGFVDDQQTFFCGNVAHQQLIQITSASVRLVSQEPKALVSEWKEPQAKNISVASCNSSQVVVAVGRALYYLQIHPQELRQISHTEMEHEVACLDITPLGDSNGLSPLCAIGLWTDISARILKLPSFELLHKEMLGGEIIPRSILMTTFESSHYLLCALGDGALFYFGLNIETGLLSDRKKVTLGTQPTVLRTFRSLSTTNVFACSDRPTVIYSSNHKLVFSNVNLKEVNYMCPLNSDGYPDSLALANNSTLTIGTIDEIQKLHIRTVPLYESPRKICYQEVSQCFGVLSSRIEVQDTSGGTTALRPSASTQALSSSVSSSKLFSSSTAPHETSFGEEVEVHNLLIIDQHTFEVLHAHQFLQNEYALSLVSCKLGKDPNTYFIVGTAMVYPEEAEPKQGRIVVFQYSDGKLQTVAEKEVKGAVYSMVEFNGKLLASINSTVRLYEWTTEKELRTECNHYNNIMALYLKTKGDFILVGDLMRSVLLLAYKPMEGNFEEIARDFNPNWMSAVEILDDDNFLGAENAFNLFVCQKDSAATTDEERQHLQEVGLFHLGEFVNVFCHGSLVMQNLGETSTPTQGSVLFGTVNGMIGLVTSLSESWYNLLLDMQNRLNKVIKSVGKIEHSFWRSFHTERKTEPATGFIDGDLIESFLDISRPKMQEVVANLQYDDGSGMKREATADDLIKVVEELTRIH
T2 sequence (Q96SW2 whole entry partner): as the sequence (Q96SW2 whole entry) above
T2 sequence (Q16531 whole entry partner): as the sequence (Q16531 whole entry partner) above
T2 sequence (Q13422 whole entry): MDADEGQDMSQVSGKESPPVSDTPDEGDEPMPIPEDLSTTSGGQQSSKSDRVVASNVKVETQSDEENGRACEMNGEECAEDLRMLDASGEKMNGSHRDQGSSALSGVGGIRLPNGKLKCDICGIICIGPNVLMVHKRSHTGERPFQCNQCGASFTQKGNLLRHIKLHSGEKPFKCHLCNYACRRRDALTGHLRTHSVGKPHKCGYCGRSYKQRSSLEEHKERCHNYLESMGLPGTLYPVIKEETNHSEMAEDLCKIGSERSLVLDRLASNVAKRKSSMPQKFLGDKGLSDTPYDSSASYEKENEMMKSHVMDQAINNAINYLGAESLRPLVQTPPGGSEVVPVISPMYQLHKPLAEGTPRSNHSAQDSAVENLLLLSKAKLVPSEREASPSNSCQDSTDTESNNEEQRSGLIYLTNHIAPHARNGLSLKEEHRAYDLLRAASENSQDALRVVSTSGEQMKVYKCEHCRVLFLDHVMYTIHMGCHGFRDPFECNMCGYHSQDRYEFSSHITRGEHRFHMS

Row | Compound | DC50 [1, 3] [nM] | Dmax [1, 3] [%] | DC50 [2, 3] [nM] | Dmax [2, 3] [%] | Dmax [1] [%] | Dmax [2] [%] | Helios Dmax [1, 3] [%] | Ikaros Dmax [2, 3] [%]
1 | CC1(C)CCCN(Cc2ccnc(-c3ccc4c(c3)CN(C3CCC(=O)NC3=O)C4=O)c2)C1 (stereo not drawn) [Example 85, 3-(5-(4-((3,3-dimethylpiperidin-1-yl)methyl)pyridin-2-yl)-1-oxoisoindolin-2-yl)piperidine-2,6-dione] | > 10000 | 20 | > 10000 | 7 |  |  |  | 
2 | O=C1CCC(N2Cc3cc(-c4cc(CNC5CCCC5)ccn4)ccc3C2=O)C(=O)N1 (stereo not drawn) [Example 86, 3-(5-(4-((cyclopentylamino)methyl)pyridin-2-yl)-1-oxoisoindolin-2-yl)piperidine-2,6-dione] | 19 | 91 | > 10000 | 20 |  |  |  | 
3 | O=C1CCC(N2Cc3cc(-c4cc(CNC5CCCCC5)ccn4)ccc3C2=O)C(=O)N1 (stereo not drawn) [Example 87, 3-(5-(4-((cyclohexylamino)methyl)pyridin-2-yl)-1-oxoisoindolin-2-yl) piperidine-2,6-dione] | 29 | 100 | > 10000 | 12 |  |  |  | 
4 | O=C1CCC(N2Cc3cc(-c4cc(CNCCN5CCOCC5)ccn4)ccc3C2=O)C(=O)N1 (stereo not drawn) [Example 88, 3-(5-(4-(((2-morpholinoethyl)amino)methyl)pyridin-2-yl)-1-oxoisoindolin-2-yl)piperidine-2,6-dione] | 72 | 102 | > 10000 | 27 |  |  |  | 
5 | CC(C)(C)NCc1ccnc(-c2ccc3c(c2)CN(C2CCC(=O)NC2=O)C3=O)c1 (stereo not drawn) [Example 89, 3-(5-(4-((tert-butylamino)methyl)pyridin-2-yl)-1-oxoisoindolin-2-yl)piperidine-2,6-dione] | 103 |  | > 10000 |  | 71 | 8 |  | 
6 | O=C1CCC(N2Cc3cc(-c4cc(CNCC(c5ccccc5)c5ccccc5)ccn4)ccc3C2=O)C(=O)N1 (stereo not drawn) [Example 90, 3-(5-(4-(((2,2-diphenylethyl)amino)methyl)pyridin-2-yl)-1-oxoisoindolin-2-yl)piperidine-2,6-dione] | 213 | 61 | > 10000 | 17 |  |  |  | 
7 | CC(=O)NCCNCc1ccnc(-c2ccc3c(c2)CN(C2CCC(=O)NC2=O)C3=O)c1 (stereo not drawn) [Example 91, N-(2-(((2-(2-(2,6-dioxopiperidin-3-yl)-1-oxoisoindolin-5-yl)pyridin-4-yl)methyl)amino)ethyl)acetamide] | 3530 | 60 | > 10000 | 4 |  |  |  | 
8 | O=C1CCC(N2Cc3cc(-c4cc(CNCCO)ccn4)ccc3C2=O)C(=O)N1 (stereo not drawn) [Example 92, 3-(5-(4-(((2-hydroxyethyl)amino)methyl)pyridin-2-yl)-1-oxoisoindolin-2-yl) piperidine-2,6-dione] | 209 | 92 | > 10000 | 11 |  |  |  | 
9 | O=C1CCC(N2Cc3cc(-c4cc(CNCCc5ccccc5Cl)ccn4)ccc3C2=O)C(=O)N1 (stereo not drawn) [Example 93, 3-(5-(4-(((2-chlorophenethyl)amino)methyl)pyridin-2-yl)-1-oxoisoindolin-2-yl)piperidine-2,6-dione] | 9 | 103 | > 10000 | 23 |  |  |  | 
10 | O=C1CCC(N2Cc3cc(-c4cc(CNCCc5ccc(Cl)cc5)ccn4)ccc3C2=O)C(=O)N1 (stereo not drawn) [Example 94, 3-(5-(4-(((4-chlorophenethyl)amino)methyl)pyridin-2-yl)-1-oxoisoindolin-2-yl)piperidine-2,6-dione] | 35 | 74 | > 10000 | 11 |  |  |  | 
11 | COc1ccc(CCNCc2ccnc(-c3ccc4c(c3)CN(C3CCC(=O)NC3=O)C4=O)c2)cc1 (stereo not drawn) [Example 95, 3-(5-(4-(((4-methoxyphenethyl)amino)methyl)pyridin-2-yl)-1-oxoisoindolin-2-yl)piperidine-2,6-dione] | 34 | 94 | > 10000 | 17 |  |  |  | 
12 | O=C1CCC(N2Cc3cc(-c4cc(CNCCc5ccc(O)cc5)ccn4)ccc3C2=O)C(=O)N1 (stereo not drawn) [Example 96, 3-(5-(4-(((4-hydroxyphenethyl)amino)methyl)pyridin-2-yl)-1-oxoisoindolin-2-yl) piperidine-2,6-dione] | 19 | 94 | > 10000 | 25 |  |  |  | 
13 | CC(C)CCNCc1ccnc(-c2ccc3c(c2)CN(C2CCC(=O)NC2=O)C3=O)c1 (stereo not drawn) [Example 97, 3-(5-(4-((isopentylamino)methyl)pyridin-2-yl)-1-oxoisoindolin-2-yl)piperidine-2,6-dione] | 8 | 90 | > 10000 | 11 |  |  |  | 
14 | O=C1CCC(N2Cc3cc(-c4cc(CNCCCc5ccccc5)ccn4)ccc3C2=O)C(=O)N1 (stereo not drawn) [Example 98, 3-(1-oxo-5-(4-(((3-phenylpropyl)amino)methyl)pyridin-2-yl)isoindolin-2-yl)piperidine-2,6-dione] | 6 | 91 | > 10000 | 8 |  |  |  | 
15 | N#CCNCc1ccnc(-c2ccc3c(c2)CN(C2CCC(=O)NC2=O)C3=O)c1 (stereo not drawn) [Example 99, 2-(((2-(2-(2,6-dioxopiperidin-3-yl)-1-oxoisoindolin-5-yl)pyridin-4-yl)methyl)amino)acetonitrile] | 419 | 65 | > 10000 | 6 |  |  |  | 
16 | NC(=O)CNCc1ccnc(-c2ccc3c(c2)CN(C2CCC(=O)NC2=O)C3=O)c1 (stereo not drawn) [Example 100, 2-(((2-(2-(2,6-dioxopiperidin-3-yl)-1-oxoisoindolin-5-yl)pyridin-4-yl)methyl)amino) acetamide] | 6130 |  | > 10000 |  |  |  | 55 | 6
17 | O=C1CCC(N2Cc3cc(-c4cc(CNC5CCC(O)CC5)ccn4)ccc3C2=O)C(=O)N1 (stereo not drawn) [Example 101, 3-(5-(4-(((4-hydroxycyclohexyl)amino)methyl)pyridin-2-yl)-1-oxoisoindolin-2-yl)piperidine-2,6-dione] | 59 | 89 | > 10000 | 22 |  |  |  | 
18 | O=C1CCC(N2Cc3cc(-c4cc(CNCCc5cccc(Cl)c5)ccn4)ccc3C2=O)C(=O)N1 (stereo not drawn) [Example 102, 3-(5-(4-(((3-chlorophenethyl)amino)methyl)pyridin-2-yl)-1-oxoisoindolin-2-yl)piperidine-2,6-dione] | 11 | 97 | > 10000 | 10 |  |  |  | 
19 | O=C1CCC(N2Cc3cc(-c4cc(CNCCOc5ccccc5)ccn4)ccc3C2=O)C(=O)N1 (stereo not drawn) [Example 103, 3-(1-oxo-5-(4-(((2-phenoxyethyl)amino)methyl)pyridin-2-yl)isoindolin-2-yl)piperidine-2,6-dione] | 36 | 95 | > 10000 | 1 |  |  |  | 
20 | O=C1CCC(N2Cc3cc(-c4cc(CNC5CCN(Cc6ccccc6)C5)ccn4)ccc3C2=O)C(=O)N1 (stereo not drawn) [Example 104, 3-(5-(4-(((1-benzylpyrrolidin-3-yl)amino)methyl)pyridin-2-yl)-1-oxoisoindolin-2-yl) piperidine-2,6-dione] | > 10000 | 44 | > 10000 | 1 |  |  |  | 
21 | NC(=O)CCNCc1ccnc(-c2ccc3c(c2)CN(C2CCC(=O)NC2=O)C3=O)c1 (stereo not drawn) [Example 105, 3-(((2-(2-(2,6-dioxopiperidin-3-yl)-1-oxoisoindolin-5-yl)pyridin-4-yl)methyl)amino)propanamide] | 264 | 79 | > 10000 | 5 |  |  |  | 
22 | O=C1CCC(N2Cc3cc(-c4cc(CNCCc5nc6ccccc6s5)ccn4)ccc3C2=O)C(=O)N1 (stereo not drawn) [Example 106, 3-(5-(4-(((2-(benzo[d]thiazol-2-yl)ethyl)amino)methyl)pyridin-2-yl)-1-oxoisoindolin-2-yl)piperidine-2,6-dione] | 72 | 79 | > 10000 | 12 |  |  |  | 
23 | CN(C)C1CCC(NCc2ccnc(-c3ccc4c(c3)CN(C3CCC(=O)NC3=O)C4=O)c2)CC1 (stereo not drawn) [Example 107, 3-(5-(4-(((4-(dimethylamino)cyclohexyl)amino)methyl)pyridin-2-yl)-1-oxoisoindolin-2-yl) piperidine-2,6-dione] | 494 | 80 | > 10000 | 15 |  |  |  | 
24 | O=C1CCC(N2Cc3cc(-c4cc(CNC5CCC5)ccn4)ccc3C2=O)C(=O)N1 (stereo not drawn) [Example 108, 3-(5-(4-((cyclobutylamino)methyl)pyridin-2-yl)-1-oxoisoindolin-2-yl)piperidine-2,6-dione] | 45 | 84 | > 10000 | 15 |  |  |  | 
25 | O=C1CCC(N2Cc3cc(-c4cc(CNC5CC5)ccn4)ccc3C2=O)C(=O)N1 (stereo not drawn) [Example 109, 3-(5-(4-((cyclopropylamino)methyl)pyridin-2-yl)-1-oxoisoindolin-2-yl)piperidine-2,6-dione] | 48 | 75 | > 10000 | 15 |  |  |  | 
26 | O=C1CCC(N2Cc3cc(-c4cc(CNCc5csc(-c6ccccc6)n5)ccn4)ccc3C2=O)C(=O)N1 (stereo not drawn) [Example 110, 3-(1-oxo-5-(4-((((2-phenylthiazol-4-yl)methyl)amino)methyl)pyridin-2-yl)isoindolin-2-yl)piperidine-2,6-dione] | 48 | 71 | > 10000 | 7 |  |  |  | 
27 | O=C1CCC(N2Cc3cc(-c4cc(CN[C@@H]5C[C@H]5c5ccccc5)ccn4)ccc3C2=O)C(=O)N1 (stereo partly drawn) [Example 111, 3-(1-oxo-5-(4-((((1R,2S)-2-phenylcyclopropyl)amino)methyl)pyridin-2-yl)isoindolin-2-yl)piperidine-2,6-dione] | 137 | 75 | > 10000 | 10 |  |  |  | 
